#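 Briefly, cells in 96-well plates were exposed to five compound concentrations for 48 h, and endpoints were estimated by linear interpolation. TGI denotes the concentration required for complete inhibition of growth.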
# Columns and labels:
# Assay in all cases: NCI tumour cell line growth inhibition, 48 h
# NCI-H23 lung = test system: NCI-H23 lung
# SN12C renal = test system: SN12C renal
# OVCAR-8 ovarian = test system: OVCAR-8 ovarian
# 786-0 renal = test system: 786-0 renal
# MDA-MB-435 = test system: MDA-MB-435
# MDA-MB-231 breast = test system: MDA-MB-231 breast
# NCI-H522 lung = test system: NCI-H522 lung
compound,measurement,setting,value
Oc1ccc(-c2nc(-c3cccnc3)c(-c3ccc(Cl)cc3)[nH]2)cc1,TGI,NCI-H23 lung,25.9 µM
same,TGI,SN12C renal,32.6 µM
same,TGI,OVCAR-8 ovarian,28.4 µM
same,TGI,786-0 renal,28.8 µM
same,TGI,MDA-MB-435,25.5 µM
same,TGI,MDA-MB-231 breast,35.1 µM
same,TGI,NCI-H522 lung,23.8 µM
CCN(CC)C(=O)Cn1c(C)cc2ccccc21,TGI,NCI-H23 lung,> 100 µM
same,TGI,SN12C renal,> 100 µM
same,TGI,OVCAR-8 ovarian,> 100 µM
same,TGI,786-0 renal,> 100 µM
same,TGI,MDA-MB-435,> 100 µM
same,TGI,MDA-MB-231 breast,> 100 µM
same,TGI,NCI-H522 lung,> 100 µM
COc1cccc(-c2ccc3c4c2O[C@H]2C(=O)CC[C@@]5(O)[C@@H](C3)N(CC3CC3)CC[C@]425)c1,TGI,NCI-H23 lung,64.8 µM
same,TGI,SN12C renal,41.4 µM
same,TGI,OVCAR-8 ovarian,34.3 µM
same,TGI,786-0 renal,32.1 µM
same,TGI,MDA-MB-435,25.6 µM
same,TGI,MDA-MB-231 breast,30.3 µM
same,TGI,NCI-H522 lung,32.9 µM
NC(N)=NCCC[C@H](N)C(=O)NCC(=O)N[C@@H](CC(=O)O)c1ncc(NC(=O)C(F)(F)F)o1,TGI,NCI-H23 lung,> 25 µM
same,TGI,OVCAR-8 ovarian,> 25 µM
same,TGI,786-0 renal,> 25 µM
same,TGI,MDA-MB-435,> 25 µM
same,TGI,NCI-H522 lung,> 25 µM
CSc1ncnc2c1ncn2C1CC(Oc2ccc(C)cc2)C(COc2ccc(C)cc2)O1 (stereo not drawn),TGI,NCI-H23 lung,> 100 µM
same,TGI,SN12C renal,> 100 µM
same,TGI,OVCAR-8 ovarian,> 100 µM
same,TGI,786-0 renal,> 100 µM
same,TGI,MDA-MB-435,> 100 µM
same,TGI,MDA-MB-231 breast,> 100 µM
same,TGI,NCI-H522 lung,> 100 µM
COc1ccc2ccccc2c1/C=C/C(=O)c1ccccc1,TGI,NCI-H23 lung,9.69 µM
same,TGI,SN12C renal,11 µM
same,TGI,OVCAR-8 ovarian,11.2 µM
same,TGI,786-0 renal,11.9 µM
same,TGI,MDA-MB-435,7.18 µM
same,TGI,MDA-MB-231 breast,7.31 µM
same,TGI,NCI-H522 lung,14.6 µM
CC(C)=CCC/C(C)=C/C=C/C(C)=C/C=C/C(C)=C/C=C/C=C(C)/C=C/C=C(C)/C=C/[C@H]1C(C(C)(C)O)CC[C@]1(C)O (stereo partly drawn),TGI,NCI-H23 lung,72.7 µM
same,TGI,OVCAR-8 ovarian,52.2 µM
same,TGI,786-0 renal,46.8 µM
same,TGI,MDA-MB-435,61.2 µM
same,TGI,MDA-MB-231 breast,66.9 µM
same,TGI,NCI-H522 lung,36.8 µM
O=C(NNC(=S)Nc1cccc(Cl)c1)c1cc(-c2ccccc2)nc2ccccc12,TGI,NCI-H23 lung,34.4 µM
same,TGI,SN12C renal,37.1 µM
same,TGI,OVCAR-8 ovarian,53.3 µM
same,TGI,786-0 renal,31.2 µM
same,TGI,MDA-MB-435,33.4 µM
same,TGI,MDA-MB-231 breast,33.2 µM
same,TGI,NCI-H522 lung,34.9 µM
COc1cc(/C=C2\C(=O)N(c3ccccc3)C(c3ccccc3)S2(=O)=O)cc(OC)c1OC (stereo not drawn),TGI,NCI-H23 lung,> 100 µM
same,TGI,SN12C renal,> 100 µM
same,TGI,OVCAR-8 ovarian,> 100 µM
same,TGI,786-0 renal,> 100 µM
same,TGI,MDA-MB-435,> 100 µM
same,TGI,MDA-MB-231 breast,> 100 µM
same,TGI,NCI-H522 lung,> 100 µM
CC(C)(C)OC(=O)NC(Cc1ccc(OCc2ccccc2)cn1)C(=O)N1CCCCC1 (stereo not drawn),TGI,NCI-H23 lung,> 100 µM
same,TGI,SN12C renal,> 100 µM
same,TGI,OVCAR-8 ovarian,> 100 µM
same,TGI,786-0 renal,> 100 µM
same,TGI,MDA-MB-435,49 µM
same,TGI,MDA-MB-231 breast,> 100 µM
same,TGI,NCI-H522 lung,> 100 µM
CCOC(=O)c1cc(C(O)P2(=O)N(CC(C)(C)C)[C@@H]3CCCC[C@H]3N2CC(C)(C)C)cn1C(=O)OC(C)(C)C (stereo partly drawn),TGI,NCI-H23 lung,68.3 µM
same,TGI,SN12C renal,27.5 µM
same,TGI,OVCAR-8 ovarian,47.1 µM
same,TGI,786-0 renal,31 µM
same,TGI,MDA-MB-435,27 µM
same,TGI,MDA-MB-231 breast,31.4 µM
same,TGI,NCI-H522 lung,31.1 µM
c1ccc2c(c1)ccn2CCc1c[nH]c2ccccc12,TGI,NCI-H23 lung,> 10 µM
same,TGI,SN12C renal,> 10 µM
same,TGI,OVCAR-8 ovarian,> 10 µM
same,TGI,786-0 renal,> 10 µM
same,TGI,MDA-MB-435,> 10 µM
same,TGI,MDA-MB-231 breast,> 10 µM
same,TGI,NCI-H522 lung,> 10 µM
Cc1ccc(SCC(CF)OC(C)n2cnc3c(=O)[nH]c(N)nc32)cc1 (stereo not drawn),TGI,NCI-H23 lung,> 100 µM
same,TGI,SN12C renal,> 100 µM
same,TGI,OVCAR-8 ovarian,> 100 µM
same,TGI,786-0 renal,> 100 µM
same,TGI,MDA-MB-435,> 100 µM
same,TGI,MDA-MB-231 breast,> 100 µM
same,TGI,NCI-H522 lung,> 100 µM
Oc1c(CN2CCOCC2)ccc2cccnc12,TGI,NCI-H23 lung,> 10 µM
same,TGI,SN12C renal,> 10 µM
same,TGI,OVCAR-8 ovarian,> 10 µM
same,TGI,786-0 renal,> 10 µM
same,TGI,MDA-MB-435,> 10 µM
same,TGI,MDA-MB-231 breast,> 10 µM
same,TGI,NCI-H522 lung,7.81 µM
Cc1ccc2c(c1)C(C(=O)N[C@@H]1C(=O)N3[C@@H]1SC(C)(C)[C@@H]3C(=O)O)OCCC2 (stereo partly drawn),TGI,NCI-H23 lung,> 100 µM
same,TGI,SN12C renal,> 100 µM
same,TGI,OVCAR-8 ovarian,> 100 µM
same,TGI,786-0 renal,> 100 µM
same,TGI,MDA-MB-435,> 100 µM
same,TGI,MDA-MB-231 breast,> 100 µM
same,TGI,NCI-H522 lung,> 100 µM
COc1ccc(C(=C(Cl)c2ccccc2)c2ccc(OC)cc2)cc1,TGI,NCI-H23 lung,> 100 µM
same,TGI,SN12C renal,> 100 µM
same,TGI,OVCAR-8 ovarian,> 100 µM
same,TGI,786-0 renal,> 100 µM
same,TGI,MDA-MB-435,> 100 µM
same,TGI,MDA-MB-231 breast,> 100 µM
same,TGI,NCI-H522 lung,> 100 µM
CCN(CC)CCNc1nc2ccc([N+](=O)[O-])cc2[n+]([O-])n1,TGI,NCI-H23 lung,47.4 µM
same,TGI,SN12C renal,54.9 µM
same,TGI,OVCAR-8 ovarian,43.1 µM
same,TGI,786-0 renal,> 100 µM
same,TGI,MDA-MB-435,29.5 µM
same,TGI,MDA-MB-231 breast,33.1 µM
same,TGI,NCI-H522 lung,> 100 µM
Cc1ccc([N+](=O)[O-])cc1S(=O)(=O)Nc1ccc(C2=NNC(c3ccccc3)C2)cc1 (stereo not drawn),TGI,NCI-H23 lung,89.8 µM
same,TGI,SN12C renal,59.2 µM
same,TGI,OVCAR-8 ovarian,> 100 µM
same,TGI,786-0 renal,74.1 µM
same,TGI,MDA-MB-435,44.6 µM
same,TGI,MDA-MB-231 breast,77.5 µM
same,TGI,NCI-H522 lung,57 µM
N=C(N)c1ccc(C(NC(=O)CNS(=O)(=O)c2ccc3ccccc3c2)P(=O)(Oc2ccccc2)Oc2ccccc2)cc1 (stereo not drawn),TGI,NCI-H23 lung,> 100 µM
same,TGI,SN12C renal,> 100 µM
same,TGI,OVCAR-8 ovarian,> 100 µM
same,TGI,786-0 renal,> 100 µM
same,TGI,MDA-MB-435,> 100 µM
same,TGI,MDA-MB-231 breast,> 100 µM
same,TGI,NCI-H522 lung,> 100 µM
CC1=NNC(N)=N/C1=C\C(Sc1ccc(Cl)cc1)c1ccc([N+](=O)[O-])cc1 (stereo not drawn),TGI,NCI-H23 lung,> 100 µM
same,TGI,SN12C renal,> 100 µM
same,TGI,OVCAR-8 ovarian,> 100 µM
same,TGI,786-0 renal,> 100 µM
same,TGI,MDA-MB-435,> 100 µM
same,TGI,MDA-MB-231 breast,> 100 µM
same,TGI,NCI-H522 lung,> 100 µM
O=c1[nH]nc(-c2ccccc2)c2[nH]c3c4ccccc4ccc3c12,TGI,NCI-H23 lung,32.7 µM
same,TGI,SN12C renal,> 100 µM
same,TGI,786-0 renal,48.1 µM
same,TGI,MDA-MB-435,0.673 µM
same,TGI,NCI-H522 lung,> 100 µM
COc1cc(/C=C2/C[C@H]3[C@@H]4CC=C5C[C@@H](O)CC[C@]5(C)[C@H]4CC[C@]3(C)NC2=O)cc(OC)c1OC,TGI,NCI-H23 lung,> 62.7 µM
same,TGI,SN12C renal,> 64.2 µM
same,TGI,OVCAR-8 ovarian,> 70.8 µM
same,TGI,786-0 renal,57.1 µM
same,TGI,MDA-MB-435,> 100 µM
same,TGI,MDA-MB-231 breast,> 55.7 µM
same,TGI,NCI-H522 lung,21.7 µM
COCN(CCC1=CCCCC1)C(=O)OC,TGI,NCI-H23 lung,> 100 µM
same,TGI,OVCAR-8 ovarian,> 100 µM
same,TGI,786-0 renal,> 100 µM
same,TGI,MDA-MB-435,> 100 µM
same,TGI,MDA-MB-231 breast,> 100 µM
same,TGI,NCI-H522 lung,> 100 µM
C[C@]12CCC(=O)O[C@H]1CCCCO2,TGI,SN12C renal,> 100 µM
same,TGI,OVCAR-8 ovarian,> 100 µM
same,TGI,786-0 renal,> 100 µM
same,TGI,MDA-MB-435,> 100 µM
same,TGI,MDA-MB-231 breast,> 100 µM
same,TGI,NCI-H522 lung,> 100 µM
CC(=O)OCC12C(=O)C[C@@H](C)C3(CC(c4ccoc4)OC3=O)C1CCC(OC(C)=O)C21CO1 (stereo partly drawn),TGI,NCI-H23 lung,> 100 µM
same,TGI,SN12C renal,> 100 µM
same,TGI,OVCAR-8 ovarian,> 100 µM
same,TGI,786-0 renal,> 100 µM
same,TGI,MDA-MB-435,> 100 µM
same,TGI,MDA-MB-231 breast,> 100 µM
same,TGI,NCI-H522 lung,> 100 µM

# — PubChem BioAssay (NCI)
